Experimental data published in US12559529B2, “NPY2 receptor agonists” (Boehringer Ingelheim International GmbH, priority 2019, dated 2026).
*1 amine or outer side, *2 acyl side, *3 side chain or, on linkers, in order; H or OH if unused. Where a SMILES comes first, the peptide text is derived from it. Side-chain parts run from the residue outwards. The star is where a group is joined. C18 diacid = O=C(O)CCCCCCCCCCCCCCCCC(=O)*; γGlu = O=C(O)[C@H](CCC(=O)[*:2])N[*:1]; Isovaleryl = CC(C)CC(=O)*; AEEA = NCCOCCOCC(=O)O

Target: T1, Human Neuropeptide Y2 Receptor (Homo sapiens, UniProt P49146)
T1 construct: purchased CHEMICON HTS066M
T1 sequence (P49146 1-381): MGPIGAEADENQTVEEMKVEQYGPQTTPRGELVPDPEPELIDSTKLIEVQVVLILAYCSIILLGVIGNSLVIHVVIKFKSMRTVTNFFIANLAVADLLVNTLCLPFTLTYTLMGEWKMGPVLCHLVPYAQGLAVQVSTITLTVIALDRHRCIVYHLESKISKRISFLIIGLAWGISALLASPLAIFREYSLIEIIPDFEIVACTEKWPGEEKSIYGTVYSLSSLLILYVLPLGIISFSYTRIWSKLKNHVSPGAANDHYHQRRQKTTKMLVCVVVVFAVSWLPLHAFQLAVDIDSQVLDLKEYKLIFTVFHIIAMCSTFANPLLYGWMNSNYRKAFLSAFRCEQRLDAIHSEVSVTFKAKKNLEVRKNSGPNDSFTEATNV
Test: Radioligand binding competition assay (RLB)
Conditions: Table 3; human 125I-PYY (1-36) 0.02 nM, Y2 receptor membranes; read-out: Ki
How it was run: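 IC50 values come from nonlinear regression of sigmoidal dose-response curves of filter-bound radioactivity. Peptides competed with radioligand at human Y2 receptor membranes (0.5 μg protein/well) for 2 h at room temperature in pH 7.4 HEPES buffer containing Mg2+, Ca2+ and 0.2% ovalbumin.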

Row | Structure (SMILES) | Ki
1 | CC(C)CC(=O)N[C@@H](C)C(=O)N1CCC[C@H]1C(=O)N[C@@H](CCC(=O)O)C(=O)N[C@@H](CCCCNC(=O)COCCOCCNC(=O)COCCOCCNC(=O)CC[C@H](NC(=O)CCCCCCCCCCCCCCCCC(=O)O)C(=O)O)C(=O)N1CCC[C@H]1C(=O)N[C@@H](CCC(=O)O)C(=O)N[C@@H](CCC(=O)O)C(=O)N[C@@H](CC(=O)O)C(=O)N[C@@H](C)C(=O)N[C@@H](CO)C(=O)N1CCC[C@H]1C(=O)N[C@@H](CCC(=O)O)C(=O)N[C@@H](CCC(=O)O)C(=O)N[C@@H](CC(C)C)C(=O)N[C@@H](CCC(N)=O)C(=O)N[C@@H](CCCNC(=N)N)C(=O)N[C@@H](Cc1ccc(O)cc1)C(=O)N[C@@H](Cc1ccc(O)cc1)C(=O)N[C@H](C(=O)N[C@@H](CO)C(=O)N[C@@H](C)C(=O)N[C@@H](CCCNC(=N)N)C(=O)N[C@@H](Cc1c[nH]cn1)C(=O)N[C@@H](Cc1ccc(O)cc1)C(=O)N[C@@H](Cc1ccc(O)cc1)C(=O)N[C@@H](CC(N)=O)C(=O)N[C@@H](Cc1c[nH]c2ccccc12)C(=O)N[C@@H](CC(C)C)C(=O)N[C@H](C(=O)N[C@@H](CCCNC(=N)N)C(=O)N[C@@H](CCC(N)=O)C(=O)N[C@@H](CCCNC(=N)N)C(=O)N[C@@H](Cc1ccc(O)cc1)C(N)=O)[C@@H](C)O)C(C)C [Compound 229, N{alpha-4}-(3-methylbutanoyl)-N{epsilon-7}-[2-(2-{2-[2-(2-{2-[(4S)-4-carboxy-4-(17-carboxyheptadecanamido)butanamido]ethoxy}ethoxy)acetamido]ethoxy}ethoxy)acetamido]-[4A,7K,9E,18Q,22V,24A,28Y,30W,31L]hPYY (4-36)] | 2.84 nM
2 | CC(C)CC(=O)N[C@@H](C)C(=O)N1CCC[C@H]1C(=O)N[C@@H](C)C(=O)N[C@@H](CCCCNC(=O)COCCOCCNC(=O)COCCOCCNC(=O)CC[C@H](NC(=O)CCCCCCCCCCCCCCCCC(=O)O)C(=O)O)C(=O)N1CCC[C@H]1C(=O)N1CCC[C@H]1C(=O)N[C@@H](CCC(=O)O)C(=O)N[C@@H](CC(=O)O)C(=O)N[C@@H](C)C(=O)N[C@@H](CO)C(=O)N1CCC[C@H]1C(=O)N[C@@H](CCC(=O)O)C(=O)N[C@@H](CCC(=O)O)C(=O)N[C@@H](CC(C)C)C(=O)N[C@@H](CCC(N)=O)C(=O)N[C@@H](CCCNC(=N)N)C(=O)N[C@@H](Cc1ccc(O)cc1)C(=O)N[C@@H](Cc1ccc(O)cc1)C(=O)N[C@H](C(=O)N[C@@H](CCC(=O)O)C(=O)N[C@@H](CC(C)C)C(=O)N[C@@H](CCCNC(=N)N)C(=O)N[C@@H](Cc1c[nH]cn1)C(=O)N[C@@H](Cc1ccc(O)cc1)C(=O)N[C@@H](Cc1ccc(O)cc1)C(=O)N[C@@H](CC(N)=O)C(=O)N[C@@H](Cc1c[nH]c2ccccc12)C(=O)N[C@@H](CC(C)C)C(=O)N[C@H](C(=O)N[C@@H](CCCNC(=N)N)C(=O)N[C@@H](CCC(N)=O)C(=O)N[C@@H](CCCNC(=N)N)C(=O)N[C@@H](Cc1ccc(O)cc1)C(N)=O)[C@@H](C)O)C(C)C [Compound 232, N{alpha-4}-(3-methylbutanoyl)-N{epsilon-7}-[2-(2-{2-[2-(2-{2-[(4S)-4-carboxy-4-(17-carboxyheptadecanamido)butanamido]ethoxy}ethoxy)acetamido]ethoxy}ethoxy)acetamido]-[4A,6A,7K,9P,18Q,22V,23E,28Y,30W,31L]hPYY (4-36)] | 0.81 nM
3 | CC(C)CC(=O)N[C@@H](C)C(=O)N1CCC[C@H]1C(=O)N[C@@H](CCC(=O)O)C(=O)N[C@@H](CCCCNC(=O)COCCOCCNC(=O)COCCOCCNC(=O)CC[C@H](NC(=O)CCCCCCCCCCCCCCCCC(=O)O)C(=O)O)C(=O)N[C@H](C(=O)N[C@@H](CCC(=O)O)C(=O)N[C@@H](CCC(=O)O)C(=O)N[C@@H](CCC(=O)O)C(=O)N[C@@H](C)C(=O)N[C@@H](CO)C(=O)N1CCC[C@H]1C(=O)N[C@@H](CCC(=O)O)C(=O)N[C@@H](CCC(=O)O)C(=O)N[C@@H](CC(C)C)C(=O)N[C@@H](CCC(N)=O)C(=O)N[C@@H](CCCNC(=N)N)C(=O)N[C@@H](Cc1ccc(O)cc1)C(=O)N[C@@H](Cc1ccc(O)cc1)C(=O)N[C@H](C(=O)N[C@@H](CO)C(=O)N[C@@H](CC(C)C)C(=O)N[C@@H](CCCNC(=N)N)C(=O)N[C@@H](Cc1c[nH]cn1)C(=O)N[C@@H](Cc1ccc(O)cc1)C(=O)N[C@@H](Cc1ccc(O)cc1)C(=O)N[C@@H](CC(N)=O)C(=O)N[C@@H](Cc1c[nH]c2ccccc12)C(=O)N[C@@H](CC(C)C)C(=O)N[C@H](C(=O)N[C@@H](CCCNC(=N)N)C(=O)N[C@@H](CCC(N)=O)C(=O)N[C@@H](CCCNC(=N)N)C(=O)N[C@@H](Cc1ccc(O)cc1)C(N)=O)[C@@H](C)O)C(C)C)[C@@H](C)O [Compound 238, N{alpha-4}-(3-methylbutanoyl)-N{epsilon-7}-[2-(2-{2-[2-(2-{2-[(4S)-4-carboxy-4-(17-carboxyheptadecanamido)butanamido]ethoxy}ethoxy)acetamido]ethoxy}ethoxy)acetamido]-[4A,7K,8T,9E,11E,18Q,22V,28Y,30W,31L]hPYY (4-36)] (Isovaleryl-APEK([AEEA-AEEA-γGlu-C18 diacid])TEEEASPEELQRYYVSLRHYYNWLTRQRY-NH2) | 25.1 nM
4 | CC(C)CC(=O)N[C@@H](C)C(=O)N1CCC[C@H]1C(=O)N[C@@H](CCC(=O)O)C(=O)N[C@@H](CCCCNC(=O)COCCOCCNC(=O)COCCOCCNC(=O)CC[C@H](NC(=O)CCCCCCCCCCCCCCCCC(=O)O)C(=O)O)C(=O)N1CCC[C@H]1C(=O)N[C@@H](CCC(=O)O)C(=O)N[C@@H](C)C(=O)N[C@@H](CC(=O)O)C(=O)N[C@@H](C)C(=O)N[C@@H](CO)C(=O)N[C@@H](C)C(=O)N[C@@H](CCC(=O)O)C(=O)N[C@@H](CCC(=O)O)C(=O)N[C@@H](CC(C)C)C(=O)N[C@@H](CCC(N)=O)C(=O)N[C@@H](CCCNC(=N)N)C(=O)N[C@@H](Cc1ccc(O)cc1)C(=O)N[C@@H](Cc1ccc(O)cc1)C(=O)N[C@H](C(=O)N[C@@H](CO)C(=O)N[C@@H](CC(C)C)C(=O)N[C@@H](CCCNC(=N)N)C(=O)N[C@@H](Cc1c[nH]cn1)C(=O)N[C@@H](Cc1ccc(O)cc1)C(=O)N[C@@H](Cc1ccc(O)cc1)C(=O)N[C@@H](CC(N)=O)C(=O)N[C@@H](Cc1c[nH]c2ccccc12)C(=O)N[C@@H](CC(C)C)C(=O)N[C@H](C(=O)N[C@@H](CCCNC(=N)N)C(=O)N[C@@H](CCC(N)=O)C(=O)N[C@@H](CCCNC(=N)N)C(=O)N[C@@H](Cc1ccc(O)cc1)C(N)=O)[C@@H](C)O)C(C)C [Compound 242, N{alpha-4}-(3-methylbutanoyl)-N{epsilon-7}-[2-(2-{2-[2-(2-{2-[(4S)-4-carboxy-4-(17-carboxyheptadecanamido)butanamido]ethoxy}ethoxy)acetamido]ethoxy}ethoxy)acetamido]-[4A,7K,9E,10A,14A,18Q,22V,28Y,30W,31L]hPYY (4-36)] | 0.81 nM
5 | CC(C)CC(=O)N[C@@H](C)C(=O)N1CCC[C@H]1C(=O)N[C@@H](CCC(=O)O)C(=O)N[C@@H](CCCCNC(=O)COCCOCCNC(=O)COCCOCCNC(=O)CC[C@H](NC(=O)CCCCCCCCCCCCCCCCC(=O)O)C(=O)O)C(=O)N1CCC[C@H]1C(=O)N[C@@H](CCC(=O)O)C(=O)N[C@@H](CCC(=O)O)C(=O)N[C@@H](CCC(=O)O)C(=O)N[C@@H](C)C(=O)N[C@@H](CO)C(=O)N1CCC[C@H]1C(=O)N[C@@H](CCC(=O)O)C(=O)N[C@@H](CCC(=O)O)C(=O)N[C@@H](CC(C)C)C(=O)N[C@@H](CCC(N)=O)C(=O)N[C@@H](CCC(N)=O)C(=O)N[C@@H](Cc1ccc(O)cc1)C(=O)N[C@@H](Cc1ccc(O)cc1)C(=O)N[C@H](C(=O)N[C@@H](CO)C(=O)N[C@@H](CC(C)C)C(=O)N[C@@H](CCCNC(=N)N)C(=O)N[C@@H](Cc1c[nH]cn1)C(=O)N[C@@H](Cc1ccc(O)cc1)C(=O)N[C@@H](Cc1ccc(O)cc1)C(=O)N[C@@H](CC(N)=O)C(=O)N[C@@H](Cc1c[nH]c2ccccc12)C(=O)N[C@@H](CC(C)C)C(=O)N[C@H](C(=O)N[C@@H](CCCNC(=N)N)C(=O)N[C@@H](CCC(N)=O)C(=O)N[C@@H](CCCNC(=N)N)C(=O)N[C@@H](Cc1ccc(O)cc1)C(N)=O)[C@@H](C)O)C(C)C [Compound 243, N{alpha-4}-(3-methylbutanoyl)-N{epsilon-7}-[2-(2-{2-[2-(2-{2-[(4S)-4-carboxy-4-(17-carboxyheptadecanamido)butanamido]ethoxy}ethoxy)acetamido]ethoxy}ethoxy)acetamido]-[4A,7K,9E,11E,18Q,19Q,22V,28Y,30W,31L]hPYY (4-36)] (Isovaleryl-APEK([AEEA-AEEA-γGlu-C18 diacid])PEEEASPEELQQYYVSLRHYYNWLTRQRY-NH2) | 2.07 nM
